Measured values from patent US8940909B2, “Indicator platform” (Biosynth AG, priority 2009, dated 2015).

Experiments:
[1] = system: enteric bacterial cells; assay: MDAB staining of bacterial colonies with indicators I4a and I5a on Tryptic Soy Agar, aerobic and anaerobic; format: cell-based; settings: Salmonella manhattan (b-gal −); aR MDAB, equivalents 1:1; TSAYE with 40 mg/100 ml of indicator
Description: Tryptic Soy Agar (TSA) with yeast extract (0.6%) was used as the base plating medium. The media were autoclaved at 121° C. for 15 minutes and placed in a 50° C. water bath to cool. Indicators were added to the basal medium at a final concentration of 40 mg/100 ml (from 80 mg/ml stock solutions in DMF). Over night cultures of enteric bacterial cells in Brain Heart Infusion Broth were streaked onto the plates and incubated at 35° C. for 24 hours under aerobic and anaerobic conditions. After incubation, the colonial morphologies on the plates were recorded (Table III).
Weak staining was observed occasionally due to residual oxygen (micro-anaerobic conditions). Under aerobic conditions indigo (IN-stains) generally dominated the effects of MDAB staining. For example indicator system I4a/MDAB stained colonies violet under anaerobic but indigo blue under aerobic conditions.

[2] = system: Escherichia coli; assay: IN and IO staining of bacterial colonies under anaerobic conditions; format: cell-based; settings: for D: Diffusion around colonies / G: Growth of colonies / I: Intensity of color / L: Localization on colonies / S: Size of colonies: Nutrient Agar plates, anaerobically incubated with E. coli
Description: Nutrient Agar plates containing 150 mg/l of various substrates and 100 mg/l IPTG were inoculated with Escherichia coli. Plates were put in an anaerobic jar (Anaerojar, Oxoid), an AnaeroGen sachet (Oxoid) was added, the jar was closed and incubated for 24 hours at 37° C.
IN staining cannot be used under anaerobic conditions.

[3] = biological target: E. coli beta-galactosidase (Escherichia coli, UniProt P00722)
Chain of E. coli beta-galactosidase (P00722 2-1024): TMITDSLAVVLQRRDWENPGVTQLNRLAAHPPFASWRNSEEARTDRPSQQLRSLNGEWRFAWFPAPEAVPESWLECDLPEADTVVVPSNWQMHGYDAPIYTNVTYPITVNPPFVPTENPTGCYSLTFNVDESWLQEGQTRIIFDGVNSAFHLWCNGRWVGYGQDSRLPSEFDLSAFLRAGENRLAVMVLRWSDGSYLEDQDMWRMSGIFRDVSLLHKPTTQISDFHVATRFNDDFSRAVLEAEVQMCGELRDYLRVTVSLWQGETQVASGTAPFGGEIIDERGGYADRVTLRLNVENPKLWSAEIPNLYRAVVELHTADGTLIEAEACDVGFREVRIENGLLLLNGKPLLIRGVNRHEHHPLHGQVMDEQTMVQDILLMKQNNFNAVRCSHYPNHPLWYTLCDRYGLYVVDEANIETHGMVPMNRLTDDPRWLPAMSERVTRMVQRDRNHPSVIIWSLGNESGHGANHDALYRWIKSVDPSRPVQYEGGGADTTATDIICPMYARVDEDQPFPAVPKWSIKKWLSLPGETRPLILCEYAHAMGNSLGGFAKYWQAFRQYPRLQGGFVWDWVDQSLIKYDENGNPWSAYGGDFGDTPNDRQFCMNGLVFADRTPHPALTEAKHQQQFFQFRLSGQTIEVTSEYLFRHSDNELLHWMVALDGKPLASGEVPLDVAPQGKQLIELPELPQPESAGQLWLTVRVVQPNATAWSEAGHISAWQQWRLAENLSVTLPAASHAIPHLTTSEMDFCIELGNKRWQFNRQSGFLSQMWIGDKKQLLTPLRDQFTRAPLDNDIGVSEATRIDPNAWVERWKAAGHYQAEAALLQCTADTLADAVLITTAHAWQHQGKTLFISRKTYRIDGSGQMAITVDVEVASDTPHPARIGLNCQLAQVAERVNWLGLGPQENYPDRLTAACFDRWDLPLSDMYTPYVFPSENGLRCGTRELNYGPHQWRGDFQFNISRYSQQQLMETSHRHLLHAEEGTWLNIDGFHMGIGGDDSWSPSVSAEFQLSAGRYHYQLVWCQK
Description: Enzymatic reactions were performed in 100 mM Na2PO4 buffer, pH 7.3 containing 1 mM MgCl2 and 670 mg/l enzyme substrate. E. coli beta-galactosidase or K. lactis lactase were added to a final concentration of 1000 U/I or 1500 U/I, respectively. 30 ml reaction volumes were incubated for 5-18 hours at 37° C. with gentle shaking. The reaction product was collected by centrifugation (4400 g, 15 min), pellets were washed with 10 ml H2O and centrifuged again (4400 g, 15 min).

[4] = system: Staphylococcus saprophyticus 273; assay: IO staining of colonies of beta-D-galactosidase positive/negative bacteria (Table IVb); format: cell-based; settings: Staphylococcus saprophyticus strain 273, b-gal +; 24 h on Nutrient Agar, 150 mg/l indicator, 100 mg/l IPTG; as to G: Growth of colonies: key: −: absent; +/−: weak; +: strong; ++: very strong
[5] = system: Listeria monocytogenes (4b) 290; assay: as above; format: cell-based; settings: Listeria monocytogenes (4b) strain 290, b-gal −; 24 h on Nutrient Agar, 150 mg/l indicator, 100 mg/l IPTG; as to C: Color of colonies: key: −: absent; +/−: weak; +: strong; ++: very strong; as to F: Fluorescence of colonies: key: −: absent; +/−: weak; +: strong; ++: very strong
[6] = system: beta-D-galactosidase positive/negative bacteria; assay: IO staining of colonies of beta-D-galactosidase positive/negative bacteria (Table IVb), hue named in column head; format: cell-based; settings: hue of fluorescence of stained colonies; 24 h on Nutrient Agar, 150 mg/l indicator, 100 mg/l IPTG
[7] = system: Klebsiella pneumoniae; assay: IO staining of bacterial colonies on Blood Agar plates; format: cell-based; settings: 24 h on Blood Agar, 150 mg/l I21a and 100 mg/l IPTG; as to Growth: key: −: absent; +/−: weak; +: strong; ++: very strong
Description: Standard commercially available Blood Agar plates were impregnated with 150 mg/l 1-(2-benzoylphenyl)-6-chloro-1H-indol-3-yl-beta-D-galactopyranoside (I21a) and 100 mg/l IPTG. The plate was inoculated with Klebsiella pneumoniae.
IO stain contrasts very well with the agar plate. Further, despite the quenching effect of blood IO fluorescence is fully maintained and readily detectable.

[8] = system: beta-galactosidase positive Eschericha coli (NM1); assay: IO staining of bacterial colonies on Nutrient Agar (color, fluorescence, localization, growth); as to C: Color of colonies (strength): key: −: absent; +/−: weak; +: strong; ++: very strong; as to F: Fluorescence of colonies (strength): key: −: absent; +/−: weak; +: strong; ++: very strong; as to G: Growth of colonies: key: −: absent; +/−: weak; +: strong; ++: very strong; format: cell-based, E. coli; settings: 150 mg/l substrate and 100 mg/l IPTG
Procedure, shortened: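 Indicators were added at 150 mg/l final, optionally with 100 mg/l IPTG, to nutrient agar at pH 7.4. Plates were inoculated with β-gal-positive E. coli NM1 or β-gal-negative S. enteritidis and incubated at 37 °C. Colony color was inspected at 16–48 h under white light, and fluorescence under 366 nm UV and by plate-reader scans of 48 h cells.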

[9] = system: beta-galactosidase negative Salmonella enteritidis (RKI 05/07992); format: cell-based; settings: S. enteritidis (b-gal negative), 24 h, 150 mg/l substrate and 100 mg/l IPTG; also: key: −: absent; +/−: weak; +: strong; ++: very strong
Description: Nutrient Agar (5 g/l peptone, 5 g/l NaCl, 2 g/l yeast extract, 1 g/l beef extract, 13 g/l agar, pH 7.4) was autoclaved and allowed to cool to 50° C. Then indicators were added to final concentrations of 150 mg/l (from a 20 mg/ml stock solution in DMF).
Optionally IPTG was added to 100 mg/l (from a 100 mg/ml stock solution in H2O) and plates were poured. Agar plates were inoculated with cultures of beta-galactosidase positive Eschericha coli (NM1) or beta-galactosidase negative Salmonella enteritidis (RKI 05/07992) (pre-grown on nutrient broth for 8-18 hours) and incubated at 37° C. Plates were inspected at 16, 20, 24 and 48 hours and pictures were recorded at 18, 24, and 48 hours with a Digistore 2 Image documentation system (CAMAG) under white light.
A considerable number of indicators molecules (Table IVa, IVb) and a selection of labile groups (Table IVc) were tested with various microbial species producing different biomarker enzymes (external stimuli, eS). The color of stains ranges from yellow to red.
Plating media from Example 10 were examined under 366 nm UV irradiation at 16, 20, 24 and 48 hours for fluorescence by means of Digistore 2 Image documentation system (CAMAG). Loops of bacterial cells, grown for 48 hours on Nutrient Agar plates containing 150 mg/l beta-D-galactosidase indicator and 100 mg/l IPTG, were directly streaked into wells of black clear bottom microtiter plates. Fluorescence scans were recorded on a Spectramax M5 (Molecular Devices).

Compound | D: Diffusion around colonies [2] | G: Growth of colonies [2] | I: Intensity of color [2] | L: Localization on colonies [2] | S: Size of colonies [2] | C: Color of colonies [4] | F: Fluorescence of colonies [4] | G: Growth of colonies [4] | C: Color of colonies [5] | F: Fluorescence of colonies [5] | G: Growth of colonies [5] | F: Fluorescence of colonies (hue) [6] | further results
5-Bromo-4-chloro-1H-indol-3-yl-beta-D-galactopyranoside [Indicator I4a, reference compound] | ++ | +/− | +/− | − | pinpoint | + | − | + | − | − | +/− | − | colonial morphology, aerobic conditions [1]: Cream colored colonies; colonial morphology, microaerobic (anaerobic) conditions [1]: Cream colored colonies; IN staining under anaerobic conditions ([2]; E. coli, anaerobic): failure; Signal upon incubation with beta-D-galactosidase in the absence of oxygen ([3]; blend with MDAB, absence of oxygen): pink dye
O=C(c1ccccc1)c1ccccc1-n1cc(O[C@@H]2O[C@H](CO)[C@H](O)[C@H](O)[C@H]2O)c2ccc(Cl)cc21 [Indicator I21a, 1-(2-Benzoylphenyl)-6-chloro-1H-indol-3-yl-beta-D-galactopyranoside] | +/− | + | + | + | 0.7 mm | + | + | + | − | − | +/− | y-g | Color of colonies UV (366 nm) [7]: Yellow-orange on a dark background; Color of colonies white/visible [7]: Yellow; Growth [7]: +; Product of incubation with beta-D-galactosidase ([3]; 24 h): bright yellow precipitate
COc1ccc(C(=O)c2ccccc2-n2cc(O[C@@H]3O[C@H](CO)[C@H](O)[C@H](O)[C@H]3O)c3c(Cl)c(Br)ccc32)c(OC)c1 [Indicator I28a, 5-Bromo-4-chloro-1-[2-(2,4-dimethoxybenzoyl)phenyl]-1H-indol-3-yl-beta-D-galactopyranoside] |  |  |  |  |  | +/− | − | + | − | − | +/− |  | F: Fluorescence of colonies (colour) ([8]; 24 h, 366 nm UV): (red); C: Color of colonies (colour of stain) ([8]; 24 h on Nutrient Agar): orange; G: Growth of colonies ([8]; E. coli, 24 h): +; L: Localization of stain on colonies ([8]; E. coli, 24 h): +; F: Fluorescence of colonies (strength) ([8]; E. coli, 24 h, 366 nm UV): +/−; C: Color of colonies (strength) ([8]; E. coli, 24 h on Nutrient Agar): +; C: Color of colonies (strength) [9]: −; F: Fluorescence of colonies (strength) ([9]; 366 nm UV): −
